Assay results reported in ChEMBL document CHEMBL4002573, “New insights into the SAR and drug combination synergy of 2-(quinolin-4-yloxy)acetamides against Mycobacterium tuberculosis” (Eur J Med Chem, 2017).
In brackets after ≈: the same amount, converted by molar mass.

What was measured:
[1] = test system: Mycobacterium tuberculosis; assay: microbe, parasite or virus in culture; conditions: H37Rv, 168 h
Description: Antimycobacterial activity against Mycobacterium tuberculosis H37Rv after 7 days by resazurin reduction microplate assay

[2] = Cytotoxicity against human HepG2 cells assessed as viability at 10 uM after 72 hrs by MTT assay relative to control; type: cell-based; conditions: read-out: Activity
[3] = Permeability of the compound at 1 uM […] by PAMPA; type: physicochemical; conditions: read-out: permeability
[4] = Half life in human liver S9 fraction at 2 uM by HPLC-MS/MS analysis; type: ADME, tissue-based
[5] = Thermodynamic solubility of the compound in 0.1N HCl at pH 1.5 after 24 hrs by HPLC method; type: physicochemical; conditions: read-out: Therm_solubility
[6] = Cytotoxicity against mouse N9 cells assessed as viability at 10 uM after 72 hrs by MTT assay relative to control; type: cell-based; conditions: read-out: Activity
[7] = Kinetic solubility in water at pH 5.8; type: physicochemical; conditions: read-out: Kinetic_solubility
[8] = Cytotoxicity against human HaCaT cells assessed as viability at 10 uM after 72 hrs by MTT assay relative to control; type: cell-based; conditions: read-out: Activity
[9] = test system: Mycobacterium tuberculosis; assay: microbe, parasite or virus in culture; conditions: PE-003, 168 h
Description: Antimycobacterial activity against Mycobacterium tuberculosis PE-003 clinical isolate after 7 days by resazurin reduction microplate assay

[10] = Thermodynamic solubility of the compound in acetate buffer at pH 4 after 24 hrs by HPLC method; type: physicochemical; conditions: read-out: Therm_solubility
[11] = Kinetic solubility in PBS at pH 7.4; type: physicochemical; conditions: read-out: Kinetic_solubility
[12] = test system: Mycobacterium tuberculosis; assay: microbe, parasite or virus in culture; conditions: CDCT-4 (1105/09), 168 h
Description: Antimycobacterial activity against Mycobacterium tuberculosis CDCT-4 (1105/09) clinical isolate after 7 days by resazurin reduction microplate assay

[13] = Cytotoxicity against mouse RAW264.7 cells assessed as viability at 10 uM after 72 hrs by MTT assay relative to control; type: cell-based; conditions: read-out: Activity
[14] = Cytotoxicity against African green monkey Vero cells assessed as viability at 10 uM after 72 hrs by MTT assay relative to control; type: cell-based; conditions: chlorocebus sabaeus, read-out: Activity
[15] = Intrinsic clearance in human liver S9 fraction at 2 uM by HPLC-MS/MS analysis; type: ADME, tissue-based
[16] = test system: Mycobacterium tuberculosis; assay: Bactericidal activity against Mycobacterium tuberculosis H37Rv infected in mouse RAW264.7 cells assessed as bacterial colony formation at 5 uM after 5 days (reference value: 4.1 to 4.73 log10CU); type: functional
[17] = test system: Mycobacterium tuberculosis; type: functional; conditions: H37Rv, 168 h
[18] = test system: Mycobacterium tuberculosis; type: functional; conditions: H37Rv, 168 h; remark: listed apart in the source
[19] = test system: Mycobacterium tuberculosis; type: functional; conditions: H37Rv, 168 h; remark: listed apart in the source
[20] = test system: Mycobacterium tuberculosis; type: functional; conditions: H37Rv, 168 h; remark: listed apart in the source
[21] = test system: Mycobacterium tuberculosis; type: functional; conditions: H37Rv, 168 h; remark: listed apart in the source
[22] = test system: Mycobacterium tuberculosis; type: functional; conditions: H37Rv, 168 h; remark: listed apart in the source

Structure (SMILES): COc1ccc2nc(C)cc(NCC(=O)Nc3ccccc3OC)c2c1
- MIC [1]: > 28.5 µM

Structure (SMILES): COc1ccc2nc(C)cc(OCC(=O)Nc3ccc(C)cc3)c2c1
- viability at 72 h, 10 µM [2]: 80%
- Papp at 1 µM [3]: 11.4 ×10⁻⁶ cm/s
- half-life at 2 µM [4]: 25.4 min
- solubility thermodynamic at 24 h [5]: 1200 µM (≈ 404 µg/mL)
- viability at 72 h, 10 µM [6]: 106%
- solubility kinetic [7]: 17 µM (≈ 5.72 µg/mL)
- viability at 72 h, 10 µM [8]: 100%
- MIC [9]: 0.04 µM (≈ 0.0135 µg/mL)
- solubility thermodynamic at 24 h [10]: 2100 µM (≈ 706 µg/mL)
- solubility kinetic [11]: 17.9 µM (≈ 6.02 µg/mL)
- MIC [12]: 0.04 µM (≈ 0.0135 µg/mL)
- MIC [1]: 0.12 µM
- viability at 72 h, 10 µM [13]: 92%
- viability at 72 h, 10 µM [14]: 95%
- CLhep predicted at 2 µM [15]: 13.5 mL/min/kg
- Activity [16]: 3.38 log10CFU

Structure (SMILES): NNC(=O)c1ccncc1 [ISONIAZID]
- MIC [9]: > 70 µM
- MIC [12]: > 70 µM
- MIC [1]: 0.16 to 1.46 µM
- Activity [16]: 2.44 log10CFU

Structure (SMILES): CCCc1ccc(NC(=O)COc2cc(C)nc3ccc(OC)cc23)cc1
- viability at 72 h, 10 µM [2]: 64%
- MIC [17]: 2.5 ng/mL (≈ 0.00686 µM)
- Papp at 1 µM [3]: 1.3 ×10⁻⁶ cm/s
- MIC [18]: 2.5 ng/mL (≈ 0.00686 µM)
- half-life at 2 µM [4]: 30.2 min
- solubility thermodynamic at 24 h [5]: 260 µM (≈ 94.8 µg/mL)
- viability at 72 h, 10 µM [6]: 106%
- solubility kinetic [7]: 3.9 µM (≈ 1.42 µg/mL)
- viability at 72 h, 10 µM [8]: 86%
- MIC [9]: 0.005 µM (≈ 0.00182 µg/mL)
- solubility thermodynamic at 24 h [10]: 90 µM (≈ 32.8 µg/mL)
- MIC [19]: 5 ng/mL (≈ 0.0137 µM)
- solubility kinetic [11]: 2.4 µM (≈ 0.875 µg/mL)
- MIC [12]: < 0.05 µM
- MIC [20]: 5 ng/mL (≈ 0.0137 µM)
- MIC [21]: 20 ng/mL (≈ 0.0549 µM)
- MIC [22]: 2.5 ng/mL (≈ 0.00686 µM)
- MIC [1]: 0.005 to 0.05 µM
- viability at 72 h, 10 µM [13]: 83%
- viability at 72 h, 10 µM [14]: 87%
- CLhep predicted at 2 µM [15]: 12.7 mL/min/kg
- Activity [16]: 2.76 log10CFU

Structure (SMILES): CCc1cc(C(N)=S)ccn1 [ETHIONAMIDE]
- MIC [9]: 61.2 µM (≈ 10.2 µg/mL)
- MIC [12]: 11.3 µM (≈ 1.88 µg/mL)
- MIC [1]: 2500 ng/mL

Structure (SMILES): COc1ccc2nc(C)cc(OCC(=O)Nc3ccc4c(c3)CCC4)c2c1
- viability at 72 h, 10 µM [2]: 95%
- Papp at 1 µM [3]: 13.1 ×10⁻⁶ cm/s
- half-life at 2 µM [4]: 11.7 min
- solubility thermodynamic at 24 h [5]: 240 µM (≈ 87 µg/mL)
- viability at 72 h, 10 µM [6]: 111%
- solubility kinetic [7]: 2.8 µM (≈ 1.01 µg/mL)
- viability at 72 h, 10 µM [8]: 99%
- MIC [9]: 0.005 µM (≈ 0.00181 µg/mL)
- solubility thermodynamic at 24 h [10]: 120 µM (≈ 43.5 µg/mL)
- solubility kinetic [11]: 2.8 µM (≈ 1.01 µg/mL)
- MIC [12]: < 0.05 µM
- MIC [1]: 0.05 µM
- viability at 72 h, 10 µM [13]: 88%
- viability at 72 h, 10 µM [14]: 97%
- CLhep predicted at 2 µM [15]: 16.9 mL/min/kg
- Activity [16]: 3.54 log10CFU

Structure (SMILES): CCOc1ccc2nc(C)cc(OCC(=O)Nc3ccccc3OC)c2c1
- MIC [1]: 1.75 µM

Structure (SMILES): COc1ccc2nc(C(C)C)cc(OCC(=O)Nc3ccccc3OC)c2c1
- MIC [1]: > 26.3 µM

Structure (SMILES): COc1ccc2nc(C)cc(OCC(=O)Nc3cccc4c3CCCC4)c2c1
- MIC [1]: 0.83 µM

Structure (SMILES): COc1ccc2nc(C)cc(OCC(=O)N(c3ccccc3)c3ccccc3)c2c1
- MIC [1]: > 25.1 µM

Structure (SMILES): COc1ccc2nc(C)cc(OCC(=O)c3ccc4ccccc4c3)c2c1
- MIC [1]: 1.75 µM

Structure (SMILES): COc1ccc2nc(C)cc(OCC(=O)N[C@H]3CCCc4ccccc43)c2c1
- MIC [1]: 1.66 µM

Structure (SMILES): COc1ccc2nc(C)c(Cc3ccccc3)c(OCC(=O)Nc3ccccc3OC)c2c1
- MIC [1]: > 22.6 µM

Structure (SMILES): COc1c(N2C[C@@H]3CCCN[C@@H]3C2)c(F)cc2c(=O)c(C(=O)O)cn(C3CC3)c12 [MOXIFLOXACIN]
- MIC [1]: 75 ng/mL

Structure (SMILES): COc1ccc2nc(C)cc(OCC(=O)Nc3ccc4c(c3)CCCC4)c2c1
- viability at 72 h, 10 µM [2]: 85%
- half-life at 2 µM [4]: 16.2 min
- solubility thermodynamic at 24 h [5]: 90 µM (≈ 33.9 µg/mL)
- viability at 72 h, 10 µM [6]: 103%
- solubility kinetic [7]: 6.6 µM (≈ 2.48 µg/mL)
- viability at 72 h, 10 µM [8]: 95%
- MIC [9]: 0.008 µM (≈ 0.00301 µg/mL)
- solubility thermodynamic at 24 h [10]: 30 µM (≈ 11.3 µg/mL)
- solubility kinetic [11]: 1.2 µM (≈ 0.452 µg/mL)
- MIC [12]: 0.11 µM (≈ 0.0414 µg/mL)
- MIC [1]: 0.05 µM
- viability at 72 h, 10 µM [13]: 82%
- viability at 72 h, 10 µM [14]: 94%
- CLhep predicted at 2 µM [15]: 15.6 mL/min/kg
- Activity [16]: 3.33 log10CFU

Structure (SMILES): COc1ccc2nc(C)cc(OCC(=O)N[C@@H]3CCCc4ccccc43)c2c1
- MIC [1]: 13.3 µM
